The source of these data is ChEMBL document CHEMBL1153365, “Identification of potent pyrimidine inhibitors of phosphodiesterase 7 (PDE7) and their ability to inhibit T cell proliferation” (Bioorg Med Chem Lett, 2009).

Data set [1] can be described thus: Inhibition of PDE4.
Data set [2] concerns the target cGMP-specific 3',5'-cyclic phosphodiesterase (Homo sapiens, UniProt O76074). Nature of the data set: Inhibition of PDE5.
Data set [3] is described as follows: Inhibition of PDE1.
Data set [4] can be described thus: Inhibition of PDE7.
Data set [5] has as its system PBMC. The data set is described as follows: Immunosuppressant activity in PBMC assessed as antiproliferation after 3 days by [3H]thymidine incorporation assay. It is filed as functional, cell-based. To be noted: Homo sapiens.
The subject of data set [6] is PBMC. Nature of the data set: Immunosuppressant activity in PBMC assessed as cytotoxicity. The class given is functional, cell-based. To be noted: Homo sapiens.
Data set [7] in a line: Inhibition of PDE3.
A short description of data set [8]: Aqueous solubility at pH 6.5. It is filed as physicochemical.
Data set [9] can be described thus: Immunosuppressant activity in PDE7 knockout splenocyte assessed as antiproliferation. It is filed as functional, cell-based.
The next data set deals with Splenocyte. The data set is described as follows: Immunosuppressant activity in wild type splenocyte assessed as antiproliferation. The class given is functional, cell-based. Particulars: Mus musculus.

Values after ≈ are worked out from the molar mass of the structure shown.

In general, IC50 refers to the concentration needed to halve the response being measured. Take `CCOC(=O)c1sc(Nc2nc(NC)cc(NCc3ccc(S(N)(=O)=O)cc3)n2)nc1C`: the IC50 was 0.03 µM in data set [1]; 0.065 µM in [2]; more than 10 µM in data set [3]; 0.1 µM in data set [4]; 0.5 µM with PBMC [5]; more than 25 µM in the data set with PBMC [6]. Besides, the IC50 in data set [7] was more than 50 µM.

The solubility is how much of the substance goes into solution per volume. Read a low solubility as little dissolved substance. With `CCOC(=O)c1sc(Nc2nc(N3CCC(O)CC3)cc(N3CCC(O)CC3)n2)nc1C`, the concentration in solution in [8] (solubility) came to 0.02 mg/mL (≈ 43.2 µM). Besides, the IC50 in data set [1] was determined as 3.2 µM; in data set [2] it was 0.7 µM; in [3], 4.9 µM; in [9], 0.15 µM; in [4], 0.063 µM; in the data set on PBMC [5], 0.12 µM. The IC50 in the data set on PBMC [6] was more than 25 µM; in [7] it was 20 µM; with Splenocyte it was 0.21 µM.

`CCOC(=O)c1sc(Nc2nc(N3CCN(C)CC3)cc(N3CCN(CCN(C)C)CC3)n2)nc1C` gave a solubility in data set [8] of more than 0.02 mg/mL. Besides, the IC50 is 9.4 µM in data set [1]; more than 10 µM in [2]; 27 µM in data set [3]; 0.056 µM in [4]; 2.2 µM with PBMC [5]; 15 µM in the data set with PBMC [6]. Also, the IC50 in [7] stood at 19 µM.

The compound `CCOC(=O)c1sc(Nc2nc(NCc3ccc(OC)c(OC)c3)cc(N3CCNCC3)n2)nc1C` showed a solubility in [8] of more than 0.02 mg/mL. Moreover, the IC50 in [1] is 2.3 µM; in [2] it was 0.32 µM; in data set [3], more than 10 µM; in [4], 0.031 µM; in the data set on PBMC [5], 1.2 µM; in the data set with PBMC [6], 12 µM. 8 µM corresponded to half-maximal inhibition in [7] (IC50).

As for `CCOC(=O)c1sc(Nc2nc(N3CCOCC3)cc(N3CCC(N(C)C)CC3)n2)nc1C`, in data set [8], the solubility is more than 0.02 mg/mL. Also, the IC50 in [1] is 9.5 µM; in data set [2], more than 10 µM; in data set [3], 15 µM; in data set [4], 0.13 µM; in the data set with PBMC [5] it was 2 µM; in the data set with PBMC [6], more than 25 µM. In addition, in data set [7], half-maximal inhibition (IC50) required 13 µM.

Regarding `CCOC(=O)c1sc(Nc2nc(N3CCC(N(C)C)CC3)cc(N3CCNC(C(N)=O)C3)n2)nc1C` (stereo not given), the solubility in data set [8] was more than 0.02 mg/mL. The IC50 in data set [1] was 8 µM; in [2], 6.5 µM; in data set [3], 23 µM; in data set [4], 0.082 µM; with PBMC [5] it was 3.1 µM; in the data set with PBMC [6], more than 25 µM. This compound also had an IC50 in data set [7] of more than 50 µM.

The compound `CCOC(=O)c1sc(Nc2nc(N3CCNCC3)c3c(n2)N(Cc2cc(OC)c(OC)c(OC)c2)CC3)nc1C` came in with an IC50 in data set [4] of 0.006 µM.

In data set [8], `CCOC(=O)c1sc(Nc2nc(N3CCC(O)CC3)cc(N3CCC(N(C)C)CC3)n2)nc1C` displayed a solubility of 0.02 mg/mL (≈ 40.8 µM). Also, the IC50 in data set [1] is more than 10 µM; in [2], more than 10 µM; in [3], 23 µM; in [4] it was 0.076 µM; in the data set with PBMC [5] it was 1.5 µM; with PBMC [6] it was more than 25 µM. Moreover, in [7], the IC50 is more than 50 µM.

Regarding `CCOC(=O)c1sc(Nc2nc(N(C)Cc3cc(OC)c(OC)c(OC)c3)cc(N3CCNCC3)n2)nc1C`, the solubility in data set [8] is more than 0.02 mg/mL. Further, the IC50 in [1] was determined as 3.2 µM; in data set [2] it was 7.6 µM; in [3], 7.9 µM; in data set [4] it was 0.01 µM; in the data set with PBMC [5], 0.45 µM; in the data set with PBMC [6] it was 14 µM. Further, the IC50 in [7] came out at 22 µM.

`CCOC(=O)c1sc(Nc2nccc(NCc3ccc(S(N)(=O)=O)cc3)n2)nc1C` showed an IC50 in data set [4] of 0.22 µM.

As to `CCOC(=O)c1sc(Nc2nc(NCc3ccc(S(N)(=O)=O)cc3)c3c(ncn3CC)n2)nc1C`, it took 0.01 µM to reach half-maximal inhibition in data set [4] (IC50).

In turn, `CCOC(=O)c1sc(Nc2nc(N3CCC(N(C)C)CC3)cc(N3CCN(C)CC3)n2)nc1C` had a solubility in data set [8] of more than 0.02 mg/mL. For the same compound, the IC50 in data set [1] was more than 10 µM; in data set [2] it was more than 10 µM; in data set [3] it was more than 50 µM; in [4], 0.083 µM; in the data set with PBMC [5] it was 2.5 µM; in the data set on PBMC [6], 15 µM. Further, the midpoint of inhibition in data set [7], the IC50, lay at 46 µM.

Regarding `CCOC(=O)c1sc(Nc2nc(NCc3ccc(S(N)(=O)=O)cc3)cc(N3CCNCC3)n2)nc1C`, the solubility in data set [8] is 0.02 mg/mL (≈ 37.5 µM). In addition, the IC50 in data set [1] was 0.22 µM; in [2] it was 0.072 µM; in [3], 4.1 µM; in data set [4], 0.01 µM; with PBMC [5] it was 7.2 µM; in the data set on PBMC [6] it was more than 25 µM. In data set [7], inhibition was half-maximal at 2.8 µM (IC50).

Take `CCOC(=O)c1sc(Nc2nc(N(C)Cc3cc(OC)c(OC)c(OC)c3)cc(N3CCN(C)CC3)n2)nc1C`: in data set [8], the solubility was more than 0.02 mg/mL. The IC50 was 5.1 µM in data set [1]; 5.2 µM in data set [2]; 4.1 µM in data set [3]; 0.039 µM in data set [4]; 0.69 µM in the data set with PBMC [5]; more than 25 µM with PBMC [6]. In data set [7], this compound yielded an IC50 of 27 µM.

In data set [8], `CCOC(=O)c1sc(Nc2nc(N3CCC(N(C)C)CC3)cc(N3CCCC(CO)C3)n2)nc1C` (stereo not given) registered a solubility of more than 0.02 mg/mL. The IC50 in data set [1] is 9.3 µM; in data set [2], more than 10 µM; in data set [3], 11 µM; in data set [4], 0.12 µM; in the data set on PBMC [5] it was 5 µM; in the data set on PBMC [6], more than 25 µM. Besides, the IC50 in data set [7] was more than 50 µM.
